# What was measured:
# Assay type in all cases: cell-based
# T98G cells = experiment: Alamar Blue cell viability, T98G cells; settings: ten-point dose response, up to 50 μM, FIG. 2
# Procedure: (§1) The compound described above as Compound 15 was tested for its effect on the viability of cells using Alamar Blue staining. This reagent takes advantage of the conversion by healthy cells of a non-fluorescent molecule, resazurin, to the brightly red-fluorescent resorufin. The assay was performed in 384 well plate format, and the fluorescence (560 nm Ex/590 nm Em) was detected and quantified using a Perkin-Elmer Envision plate reader. Four samples were compared. Samples were the compound identified as 2PA in paragraph [0014] (i.e. just “A” without “L” or “B”), a dimer of 2PA (i.e. A-L-A, wherein L is C6H4):
# (§2) PK11195 alone and Compound 15. Ten-point dose responses were performed in both HeLa and T98G cells to determine the concentration at which each compound was effective.
# HeLa cells [1] = experiment: Alamar Blue cell viability, HeLa cells; settings: ten-point dose response, up to 50 μM, FIG. 1
# Procedure: as §1, §2
# HeLa cells [2] = experiment: Count of apoptotic HeLa cells with and without pan-caspase inhibitor ZVAD-FMK; settings: 40 μM, 3 or 6 hours
# Procedure: To verify the induction of apoptosis by Compound 15, HeLa cells were treated with 40 μM of the compound and incubated for 3 or 6 hours in the presence and absence of pan-caspase inhibitor ZVAD-FMK. Apoptotic cells were counted at the indicated times in each condition.
SMILES,cell killing (percent survival as a function of concentration) (T98G cells),cell killing (percent survival as a function of concentration) (HeLa cells [1]),induction of apoptosis (apoptotic cells counted) (HeLa cells [2]; absence of ZVAD-FMK),induction of apoptosis (apoptotic cells counted) with caspase inhibitor (HeLa cells [2]; presence of pan-caspase inhibitor ZVAD-FMK)
CNC(C)C(=O)NC(C(=O)N1CCCC1Cn1nnnc1Sc1ccccc1)C(C)OCC#CC#CCOC(C)C(NC(=O)C(C)NC)C(=O)N1CCCC1Cn1nnnc1Sc1ccccc1 (stereo not shown) [dimer],do not kill at any concentration,do not kill at any concentration,–,–
CCC(C)N(C)C(=O)c1cc2ccccc2c(-c2ccccc2Cl)n1 (stereo not shown) [PK11195],do not kill at any concentration,do not kill at any concentration,–,–
CN[C@@H](C)C(=O)N[C@H](C(=O)N1CCC[C@H]1Cn1nnnc1Sc1ccccc1)C(C)OCc1cn(CCOCCOCCOCCNC(=O)c2cc3ccccc3c(-c3ccccc3Cl)n2)nn1 (stereo partly shown) [Compound 15],kills both HeLa and T98G cells effectively,kills both HeLa and T98G cells effectively,can induce cell death,the caspase inhibitor can prevent this induction of cell death
C#CCOC(C)C(NC(=O)C(C)NC)C(=O)N1CCCC1Cn1nnnc1Sc1ccccc1 (stereo not shown) [monomer],do not kill at any concentration,do not kill at any concentration,–,–
